Measurements: PubChem BioAssay AID1259407 (Chemical Carcinogenesis Research Information System (CCRIS), 2018)
Activity calls are given as the source filed them. The rule behind the calls is not given here.

System: CCRIS mutagenicity, Ames/micronucleus/aberration tests
Test: CCRIS mutagenicity studies
[1] = Test System: AMES SALMONELLA TYPHIMURIUM, Strain/Indicator: TA98, Metabolic Activation: HAMSTER, LIVER, S-9, AROCLOR 1254 (10%), Method: PREINCUBATION
[2] = Test System: AMES SALMONELLA TYPHIMURIUM, Strain/Indicator: TA98, Metabolic Activation: NONE, Method: PREINCUBATION
[3] = Test System: AMES SALMONELLA TYPHIMURIUM, Strain/Indicator: TA98, Metabolic Activation: NONE, Method: STANDARD PLATE
[4] = Test System: AMES SALMONELLA TYPHIMURIUM, Strain/Indicator: TA98, Metabolic Activation: RAT, LIVER, S-9, AROCLOR 1254 (10%), Method: PREINCUBATION
[5] = Test System: AMES SALMONELLA TYPHIMURIUM, Strain/Indicator: TA100, Metabolic Activation: HAMSTER, LIVER, S-9, AROCLOR 1254 (10%), Method: PREINCUBATION
[6] = Test System: AMES SALMONELLA TYPHIMURIUM, Strain/Indicator: TA100, Metabolic Activation: NONE, Method: PREINCUBATION
[7] = Test System: AMES SALMONELLA TYPHIMURIUM, Strain/Indicator: TA100, Metabolic Activation: RAT, LIVER, S-9, AROCLOR 1254 (10%), Method: PREINCUBATION
[8] = Test System: AMES SALMONELLA TYPHIMURIUM, Strain/Indicator: TA1535, Metabolic Activation: HAMSTER, LIVER, S-9, AROCLOR 1254 (10%), Method: PREINCUBATION
[9] = Test System: AMES SALMONELLA TYPHIMURIUM, Strain/Indicator: TA1535, Metabolic Activation: NONE, Method: PREINCUBATION
[10] = Test System: AMES SALMONELLA TYPHIMURIUM, Strain/Indicator: TA1535, Metabolic Activation: RAT, LIVER, S-9, AROCLOR 1254 (10%), Method: PREINCUBATION
[11] = Test System: AMES SALMONELLA TYPHIMURIUM, Strain/Indicator: TA100, Metabolic Activation: NONE, Method: STANDARD PLATE

## CC(=O)Nc1ccc(N=Nc2cc(C)ccc2O)cc1
End Point: IN VITRO CHROMOSOMAL ABERRATIONS, Test System: CHO CELLS, Metabolic Activation: NONE
  mutagenic call: inactive; negative
End Point: IN VITRO CHROMOSOMAL ABERRATIONS, Test System: CHO CELLS, Metabolic Activation: RAT, LIVER, S-9, AROCLOR 1254
  mutagenic call: inactive; negative
Test System: AMES SALMONELLA TYPHIMURIUM, Strain/Indicator: TA97, Metabolic Activation: HAMSTER, LIVER, S-9, AROCLOR 1254 (10%), Method: PREINCUBATION
  mutagenic call: active; positive
Test System: AMES SALMONELLA TYPHIMURIUM, Strain/Indicator: TA97, Metabolic Activation: NONE, Method: PREINCUBATION
  mutagenic call: active; positive
Test System: AMES SALMONELLA TYPHIMURIUM, Strain/Indicator: TA97, Metabolic Activation: RAT, LIVER, S-9, AROCLOR 1254 (10%), Method: PREINCUBATION
  mutagenic call: active; positive
Test System: AMES SALMONELLA TYPHIMURIUM, Strain/Indicator: TA98, Metabolic Activation: HAMSTER, LIVER, S-9, AROCLOR 1254 (5, 10, 20%), Method: PREINCUBATION
  mutagenic call: active; positive
[1]
  mutagenic call: active; positive
Test System: AMES SALMONELLA TYPHIMURIUM, Strain/Indicator: TA98, Metabolic Activation: HAMSTER, LIVER, S-9, AROCLOR 1254, Method: STANDARD PLATE
  mutagenic call: active; positive
Test System: AMES SALMONELLA TYPHIMURIUM, Strain/Indicator: TA98, Metabolic Activation: HAMSTER, LIVER, S-9, Method: PREINCUBATION (PRIVAL METHOD)
  mutagenic call: active; positive
[2]
  mutagenic call: active; positive
[3]
  mutagenic call: active; positive
[4]
  mutagenic call: active; positive
Test System: AMES SALMONELLA TYPHIMURIUM, Strain/Indicator: TA98, Metabolic Activation: RAT, LIVER, S-9, AROCLOR 1254, HAMSTER, LIVER, S-9, AROCLOR 1254, Method: STANDARD PLATE
  mutagenic call: active; positive
[5]
  mutagenic call: active; positive
Test System: AMES SALMONELLA TYPHIMURIUM, Strain/Indicator: TA100, Metabolic Activation: HAMSTER, LIVER, S-9, AROCLOR 1254, Method: STANDARD PLATE
  mutagenic call: active; positive
Test System: AMES SALMONELLA TYPHIMURIUM, Strain/Indicator: TA100, Metabolic Activation: HAMSTER, LIVER, S-9, Method: PREINCUBATION (PRIVAL METHOD)
  mutagenic call: active; positive
[6]
  mutagenic call: active; positive
[7]
  mutagenic call: active; positive
[8]
  mutagenic call: inactive; negative
[9]
  mutagenic call: inactive; negative
[10]
  mutagenic call: inactive; negative
Test System: AMES SALMONELLA TYPHIMURIUM, Strain/Indicator: TA1537, Metabolic Activation: NONE, Method: STANDARD PLATE
  mutagenic call: active; positive
Test System: AMES SALMONELLA TYPHIMURIUM, Strain/Indicator: TA1537, Metabolic Activation: RAT, LIVER, S-9, AROCLOR 1254, HAMSTER, LIVER, S-9, AROCLOR 1254, Method: STANDARD PLATE
  mutagenic call: active; positive
Test System: AMES SALMONELLA TYPHIMURIUM, Strain/Indicator: TA1538, Metabolic Activation: NONE, Method: STANDARD PLATE
  mutagenic call: active; positive
Test System: AMES SALMONELLA TYPHIMURIUM, Strain/Indicator: TA1538, Metabolic Activation: RAT, LIVER, S-9, AROCLOR 1254, HAMSTER, LIVER, S-9, AROCLOR 1254, Method: STANDARD PLATE
  mutagenic call: active; positive
Test System: Mouse lymphoma, Strain/Indicator: L5178Y (tk+/tk-), Metabolic Activation: None, Method: Suspension/Plate
  mutagenic call: inactive; negative
Test System: Mouse lymphoma, Strain/Indicator: L5178Y (tk+/tk-), Metabolic Activation: Rat, Liver, S-9, Aroclor 1254, Method: Suspension/Plate
  mutagenic call: inactive; inconclusive (previous evaluation negative)

## CN[C@H]1CCc2cc(OC)c(OC)c(OC)c2-c2ccc(OC)c(=O)cc21
[3]
  mutagenic call: inactive; negative
[11]
  mutagenic call: inactive; negative
Test System: E. COLI, Strain/Indicator: WP2 (HCR), Metabolic Activation: NONE, Method: STANDARD PLATE
  mutagenic call: inactive; negative

## Nc1cccc(N)c1C(=O)O
[2]
  mutagenic call: inactive; negative
Test System: AMES SALMONELLA TYPHIMURIUM, Strain/Indicator: TA98, Metabolic Activation: RAT, LIVER, S-9, PHENOBARBITAL AND 5,6-BENZOFLAVONE, Method: PREINCUBATION
  mutagenic call: active; positive
[6]
  mutagenic call: inactive; negative
Test System: AMES SALMONELLA TYPHIMURIUM, Strain/Indicator: TA100, Metabolic Activation: RAT, LIVER, S-9, PHENOBARBITAL AND 5,6-BENZOFLAVONE, Method: PREINCUBATION
  mutagenic call: inactive; negative

## CCc1cc(-c2ccccc2)ccc1N
[3]
  mutagenic call: inactive; negative
Test System: AMES SALMONELLA TYPHIMURIUM, Strain/Indicator: TA98, Metabolic Activation: RAT LIVER S-9, AROCLOR, Method: STANDARD PLATE
  mutagenic call: active; positive
[11]
  mutagenic call: active; positive
Test System: AMES SALMONELLA TYPHIMURIUM, Strain/Indicator: TA100, Metabolic Activation: RAT LIVER S-9, AROCLOR, Method: STANDARD PLATE
  mutagenic call: active; positive

## O=Nc1ccc2ccc3cc4ccccc4c4ccc1c2c34
Test System: AMES SALMONELLA TYPHIMURIUM, Strain/Indicator: TA98 (1,8-DNP6), Metabolic Activation: NONE, Method: STANDARD PLATE
  mutagenic call: active; positive
Test System: AMES SALMONELLA TYPHIMURIUM, Strain/Indicator: TA98 (NR), Metabolic Activation: NONE, Method: STANDARD PLATE
  mutagenic call: active; positive
[3]
  mutagenic call: active; positive
Test System: CHINESE HAMSTER OVARY, Strain/Indicator: CHO-K1-BH4 (HGPRT), Metabolic Activation: NONE
  mutagenic call: active; positive

## CCCCCCCCCCCOC(=O)c1ccccc1C(=O)OCCCCCCCCCCC
[1]
  mutagenic call: inactive; negative
[2]
  mutagenic call: inactive; negative
[4]
  mutagenic call: inactive; negative
[5]
  mutagenic call: inactive; negative
[6]
  mutagenic call: inactive; negative
[7]
  mutagenic call: inactive; negative
[8]
  mutagenic call: inactive; negative
[9]
  mutagenic call: inactive; negative
[10]
  mutagenic call: inactive; negative
Test System: AMES SALMONELLA TYPHIMURIUM, Strain/Indicator: TA1537, Metabolic Activation: HAMSTER, LIVER, S-9, AROCLOR 1254 (10%), Method: PREINCUBATION
  mutagenic call: inactive; negative
Test System: AMES SALMONELLA TYPHIMURIUM, Strain/Indicator: TA1537, Metabolic Activation: NONE, Method: PREINCUBATION
  mutagenic call: inactive; negative
Test System: AMES SALMONELLA TYPHIMURIUM, Strain/Indicator: TA1537, Metabolic Activation: RAT, LIVER, S-9, AROCLOR 1254 (10%), Method: PREINCUBATION
  mutagenic call: inactive; negative
Test System: MOUSE LYMPHOMA, Strain/Indicator: L5178Y (TK+/TK-), Metabolic Activation: NONE, Method: SUSPENSION/PLATE
  mutagenic call: inactive; negative
Test System: MOUSE LYMPHOMA, Strain/Indicator: L5178Y (TK+/TK-), Metabolic Activation: RAT LIVER S-9, Method: SUSPENSION/PLATE
  mutagenic call: inactive; negative
